From PubChem BioAssay (NCI)
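All cell lines were grown in 96-well plates and treated with compound for 48 hours. Abbreviation: GI50, concentration required for 50% inhibition of growth. TGI marks complete inhibition of growth.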

Columns and labels:
Experiment in all cases: NCI anticancer screen, dose series, 48 h
786-0 renal = tested on: 786-0 renal
A498 renal = tested on: A498 renal
A549 NSCLC = tested on: A549 NSCLC
ACHN renal = tested on: ACHN renal
CAKI-1 renal = tested on: CAKI-1 renal
CCRF-CEM leukemia = tested on: CCRF-CEM leukemia
COLO 205 colon = tested on: COLO 205 colon
DU-145 prostate = tested on: DU-145 prostate
EKVX NSCLC = tested on: EKVX NSCLC
HCC-2998 colon = tested on: HCC-2998 colon
HCT-116 colon = tested on: HCT-116 colon
HCT-15 colon = tested on: HCT-15 colon
HL-60(TB) leukemia = tested on: HL-60(TB) leukemia
HOP-62 NSCLC = tested on: HOP-62 NSCLC
HOP-92 NSCLC = tested on: HOP-92 NSCLC
HS 578T breast = tested on: HS 578T breast
HT29 colon = tested on: HT29 colon
IGROV1 ovarian = tested on: IGROV1 ovarian
K-562 leukemia = tested on: K-562 leukemia
KM12 colon = tested on: KM12 colon
LOX IMVI melanoma = tested on: LOX IMVI melanoma
M14 melanoma = tested on: M14 melanoma
MALME-3M melanoma = tested on: MALME-3M melanoma
MCF7 breast = tested on: MCF7 breast
MDA-MB-231 breast = tested on: MDA-MB-231 breast
MDA-MB-435 = tested on: MDA-MB-435
MOLT-4 leukemia = tested on: MOLT-4 leukemia
NCI-H226 lung = tested on: NCI-H226 lung
NCI-H23 lung = tested on: NCI-H23 lung
NCI-H460 lung = tested on: NCI-H460 lung
NCI-H522 lung = tested on: NCI-H522 lung
NCI/ADR-RES ovarian = tested on: NCI/ADR-RES ovarian
OVCAR-3 ovarian = tested on: OVCAR-3 ovarian
OVCAR-4 ovarian = tested on: OVCAR-4 ovarian
OVCAR-5 ovarian = tested on: OVCAR-5 ovarian
OVCAR-8 ovarian = tested on: OVCAR-8 ovarian
PC-3 prostate = tested on: PC-3 prostate
RPMI-8226 leukemia = tested on: RPMI-8226 leukemia
RXF 393 renal = tested on: RXF 393 renal
SF-268 CNS = tested on: SF-268 CNS
SF-295 CNS = tested on: SF-295 CNS
SF-539 CNS = tested on: SF-539 CNS
SK-MEL-2 melanoma = tested on: SK-MEL-2 melanoma
SK-MEL-28 melanoma = tested on: SK-MEL-28 melanoma
SK-MEL-5 melanoma = tested on: SK-MEL-5 melanoma
SK-OV-3 ovarian = tested on: SK-OV-3 ovarian
SN12C renal = tested on: SN12C renal
SNB-19 CNS = tested on: SNB-19 CNS
SNB-75 CNS = tested on: SNB-75 CNS
SR leukemia = tested on: SR leukemia
SW-620 colon = tested on: SW-620 colon
T-47D breast = tested on: T-47D breast
TK-10 renal = tested on: TK-10 renal
U251 CNS = tested on: U251 CNS
UACC-257 melanoma = tested on: UACC-257 melanoma
UACC-62 melanoma = tested on: UACC-62 melanoma
UO-31 renal = tested on: UO-31 renal

**Q.** `COc1ccc2c(c1)c(CC(=O)[Se]C)c(C)n2C(=O)c1ccc(Cl)cc1` was tested. Which GI50 (786-0 renal) did it give?
**A.** > 197 nM

**Q.** And the TGI (786-0 renal)?
**A.** > 428 nM

**Q.** What about the GI50 (A498 renal) of the same compound?
**A.** 269 nM

**Q.** What about the TGI (A498 renal) of the same compound?
**A.** > 561 nM

**Q.** And the GI50 (A549 NSCLC)?
**A.** > 283 nM

**Q.** What about the TGI (A549 NSCLC) of the same compound?
**A.** > 603 nM

**Q.** What about the GI50 (ACHN renal) of the same compound?
**A.** > 560 nM

**Q.** What about the TGI (ACHN renal) of the same compound?
**A.** > 1000 nM

**Q.** What about the GI50 (CAKI-1 renal) of the same compound?
**A.** > 266 nM

**Q.** What about the TGI (CAKI-1 renal) of the same compound?
**A.** > 515 nM

**Q.** What about the GI50 (CCRF-CEM leukemia) of the same compound?
**A.** > 391 nM

**Q.** And the TGI (CCRF-CEM leukemia)?
**A.** > 1000 nM

**Q.** What about the GI50 (COLO 205 colon) of the same compound?
**A.** > 608 nM

**Q.** What about the TGI (COLO 205 colon) of the same compound?
**A.** > 1000 nM

**Q.** And the GI50 (DU-145 prostate)?
**A.** > 423 nM

**Q.** And the TGI (DU-145 prostate)?
**A.** > 807 nM

**Q.** And the GI50 (EKVX NSCLC)?
**A.** > 229 nM

**Q.** And the TGI (EKVX NSCLC)?
**A.** > 459 nM

**Q.** What about the GI50 (HCC-2998 colon) of the same compound?
**A.** > 673 nM

**Q.** And the TGI (HCC-2998 colon)?
**A.** > 1000 nM

**Q.** And the GI50 (HCT-116 colon)?
**A.** > 204 nM

**Q.** And the TGI (HCT-116 colon)?
**A.** > 543 nM

**Q.** What about the GI50 (HCT-15 colon) of the same compound?
**A.** > 506 nM

**Q.** And the TGI (HCT-15 colon)?
**A.** > 1000 nM

**Q.** And the GI50 (HL-60(TB) leukemia)?
**A.** > 398 nM

**Q.** What about the TGI (HL-60(TB) leukemia) of the same compound?
**A.** > 779 nM

**Q.** What about the GI50 (HOP-62 NSCLC) of the same compound?
**A.** > 306 nM

**Q.** What about the TGI (HOP-62 NSCLC) of the same compound?
**A.** > 615 nM

**Q.** What about the GI50 (HOP-92 NSCLC) of the same compound?
**A.** > 336 nM

**Q.** What about the TGI (HOP-92 NSCLC) of the same compound?
**A.** > 533 nM

**Q.** And the GI50 (HS 578T breast)?
**A.** > 297 nM

**Q.** And the TGI (HS 578T breast)?
**A.** > 942 nM

**Q.** And the GI50 (HT29 colon)?
**A.** > 223 nM

**Q.** What about the TGI (HT29 colon) of the same compound?
**A.** > 1000 nM

**Q.** And the GI50 (IGROV1 ovarian)?
**A.** > 199 nM

**Q.** And the TGI (IGROV1 ovarian)?
**A.** > 615 nM

**Q.** And the GI50 (K-562 leukemia)?
**A.** > 583 nM

**Q.** What about the TGI (K-562 leukemia) of the same compound?
**A.** > 1000 nM

**Q.** And the GI50 (KM12 colon)?
**A.** > 577 nM

**Q.** And the TGI (KM12 colon)?
**A.** > 1000 nM

**Q.** What about the GI50 (LOX IMVI melanoma) of the same compound?
**A.** > 203 nM

**Q.** And the TGI (LOX IMVI melanoma)?
**A.** > 528 nM

**Q.** And the TGI (M14 melanoma)?
**A.** > 340 nM

**Q.** What about the GI50 (MALME-3M melanoma) of the same compound?
**A.** > 346 nM

**Q.** What about the TGI (MALME-3M melanoma) of the same compound?
**A.** > 582 nM

**Q.** What about the GI50 (MCF7 breast) of the same compound?
**A.** > 350 nM

**Q.** What about the TGI (MCF7 breast) of the same compound?
**A.** > 1000 nM

**Q.** And the GI50 (MDA-MB-231 breast)?
**A.** > 383 nM

**Q.** And the TGI (MDA-MB-231 breast)?
**A.** > 637 nM

**Q.** And the GI50 (MDA-MB-435)?
**A.** > 231 nM

**Q.** And the TGI (MDA-MB-435)?
**A.** > 503 nM

**Q.** And the GI50 (MOLT-4 leukemia)?
**A.** > 335 nM

**Q.** What about the TGI (MOLT-4 leukemia) of the same compound?
**A.** > 1000 nM

**Q.** What about the TGI (NCI-H226 lung) of the same compound?
**A.** > 270 nM

**Q.** What about the GI50 (NCI-H23 lung) of the same compound?
**A.** > 376 nM

**Q.** And the TGI (NCI-H23 lung)?
**A.** > 894 nM

**Q.** And the GI50 (NCI-H460 lung)?
**A.** > 304 nM

**Q.** What about the TGI (NCI-H460 lung) of the same compound?
**A.** > 1000 nM

**Q.** What about the GI50 (NCI-H522 lung) of the same compound?
**A.** > 371 nM

**Q.** What about the TGI (NCI-H522 lung) of the same compound?
**A.** > 677 nM

**Q.** What about the GI50 (NCI/ADR-RES ovarian) of the same compound?
**A.** > 237 nM

**Q.** What about the TGI (NCI/ADR-RES ovarian) of the same compound?
**A.** > 695 nM

**Q.** What about the GI50 (OVCAR-3 ovarian) of the same compound?
**A.** > 367 nM

**Q.** And the TGI (OVCAR-3 ovarian)?
**A.** > 583 nM

**Q.** What about the GI50 (OVCAR-4 ovarian) of the same compound?
**A.** > 443 nM

**Q.** What about the TGI (OVCAR-4 ovarian) of the same compound?
**A.** > 1000 nM

**Q.** What about the GI50 (OVCAR-5 ovarian) of the same compound?
**A.** > 424 nM

**Q.** What about the TGI (OVCAR-5 ovarian) of the same compound?
**A.** > 1000 nM

**Q.** What about the GI50 (OVCAR-8 ovarian) of the same compound?
**A.** > 346 nM

**Q.** And the TGI (OVCAR-8 ovarian)?
**A.** > 733 nM

**Q.** What about the GI50 (PC-3 prostate) of the same compound?
**A.** > 337 nM

**Q.** And the TGI (PC-3 prostate)?
**A.** > 897 nM

**Q.** And the GI50 (RPMI-8226 leukemia)?
**A.** > 542 nM

**Q.** And the TGI (RPMI-8226 leukemia)?
**A.** > 942 nM

**Q.** What about the GI50 (RXF 393 renal) of the same compound?
**A.** > 206 nM

**Q.** What about the TGI (RXF 393 renal) of the same compound?
**A.** > 500 nM

**Q.** What about the GI50 (SF-268 CNS) of the same compound?
**A.** > 199 nM

**Q.** And the TGI (SF-268 CNS)?
**A.** > 530 nM

**Q.** What about the GI50 (SF-295 CNS) of the same compound?
**A.** > 365 nM

**Q.** What about the TGI (SF-295 CNS) of the same compound?
**A.** > 580 nM

**Q.** And the GI50 (SF-539 CNS)?
**A.** > 238 nM

**Q.** And the TGI (SF-539 CNS)?
**A.** > 526 nM

**Q.** And the GI50 (SK-MEL-2 melanoma)?
**A.** > 436 nM

**Q.** What about the TGI (SK-MEL-2 melanoma) of the same compound?
**A.** > 794 nM

**Q.** What about the GI50 (SK-MEL-28 melanoma) of the same compound?
**A.** > 202 nM

**Q.** And the TGI (SK-MEL-28 melanoma)?
**A.** > 588 nM

**Q.** What about the GI50 (SK-MEL-5 melanoma) of the same compound?
**A.** > 434 nM

**Q.** What about the TGI (SK-MEL-5 melanoma) of the same compound?
**A.** > 608 nM

**Q.** And the GI50 (SK-OV-3 ovarian)?
**A.** > 658 nM

**Q.** And the TGI (SK-OV-3 ovarian)?
**A.** 989 nM

**Q.** And the GI50 (SN12C renal)?
**A.** > 490 nM

**Q.** And the TGI (SN12C renal)?
**A.** > 1000 nM

**Q.** And the GI50 (SNB-19 CNS)?
**A.** > 421 nM

**Q.** What about the TGI (SNB-19 CNS) of the same compound?
**A.** > 752 nM

**Q.** And the TGI (SNB-75 CNS)?
**A.** > 238 nM

**Q.** And the GI50 (SR leukemia)?
**A.** > 507 nM

**Q.** And the TGI (SR leukemia)?
**A.** > 1000 nM

**Q.** And the GI50 (SW-620 colon)?
**A.** > 468 nM

**Q.** And the TGI (SW-620 colon)?
**A.** > 854 nM

**Q.** What about the TGI (T-47D breast) of the same compound?
**A.** > 1000 nM

**Q.** And the GI50 (TK-10 renal)?
**A.** > 347 nM

**Q.** And the TGI (TK-10 renal)?
**A.** > 543 nM

**Q.** What about the GI50 (U251 CNS) of the same compound?
**A.** > 326 nM

**Q.** And the TGI (U251 CNS)?
**A.** > 573 nM

**Q.** And the GI50 (UACC-257 melanoma)?
**A.** > 352 nM

**Q.** And the TGI (UACC-257 melanoma)?
**A.** > 689 nM

**Q.** What about the GI50 (UACC-62 melanoma) of the same compound?
**A.** > 445 nM

**Q.** What about the TGI (UACC-62 melanoma) of the same compound?
**A.** > 1000 nM

**Q.** And the TGI (UO-31 renal)?
**A.** > 523 nM
